Read-outs that look alike come from different tables or passages of the source.
Tests used:
DAT = DAT (Homo sapiens (Human), UniProt Q01959); test: DAT binding
[1] = target: 5-HT uptake, rat brain synaptosomes (Rattus norvegicus (Rat), UniProt P31652); test: 5-HT uptake inhibition in rat brain synaptosomes; type: biochemical
Experimental: (§1) The effects of exemplary compounds of the invention on the cellular uptake of norepinephrine (NE), dopamine (DA) and serotonin (5-HT) were tested in preparations of synaptosomes from different rat brain regions using the previously-reported techniques referenced below.
(§2) Whole brains were obtained from normal rats. Synaptosomal preparations were made from either whole brain (5-HT), striatum (DA) or hypothalamus (NE) by gentle disruption in 10 volumes (w/v) of 0.32 M sucrose (0-4° C.) using a Teflon-glass homogenizer. The homogenate was then centrifuged at 1000×g for 10 min. The supernatant was retained and centrifuged at 23000 g for 20 min. The resulting pellet was gently resuspended in 200 volumes of 0.32 M sucrose (0-4° C.) using the Teflon-glass homogenizer. Aliquots (250 μL) of this preparation were added to tubes, along with 0.2 μCi/mL of [^3H]5-HT, [^3H]DA, or [^3H]NE, 200 μL of the test compounds (to yield final concentrations of 100 nM, 300 nM, 1 μM, 3 μM, 10 μM, 30 μM or 100 μM) and 1 mL of Krebs-Ringer bicarbonate buffer (pH 7.4). The mixtures were incubated for either 15 (DA and 5-HT uptake) or 20 (NE uptake) minutes at 37° C. At the end of this period, the assay was terminated by rapid filtration over Whatman GF/C glass fiber filters. The filters were rinsed 3 times with 4 ml of Krebs-Ringer bicarbonate buffer (0-4° C.), and the radioactivity retained on the filters measured by liquid scintillation spectrometry.
(§3) Each assay was run according to the description of the respective publications cited above, and according to the following parameters/reagents/conditions.
(§4) In each experiment, the respective reference compound was tested concurrently with the test compounds in order to assess the assay suitability. It was tested at several concentrations (for IC50 value determination). The assay was considered valid if the suitability criteria were met, in accordance with the corresponding Standard Operating Procedure.
(§5) Individual and mean values are presented with the results. The IC50 values (concentration causing a half-maximal inhibition of control values) were determined by non-linear regression analysis of the inhibition curves using Hill equation curve fitting.

NET = NET (Homo sapiens (Human), UniProt P23975); test: NET binding
SERT = SERT (Homo sapiens (Human), UniProt P31645); test: SERT binding
[2] = target: dopamine (DA) uptake, rat striatum synaptosomes (Rattus norvegicus (Rat), UniProt P23977); test: Dopamine (DA) uptake inhibition in rat striatum synaptosomes; type: biochemical
Chain of dopamine (DA) uptake, rat striatum synaptosomes (P23977 whole entry): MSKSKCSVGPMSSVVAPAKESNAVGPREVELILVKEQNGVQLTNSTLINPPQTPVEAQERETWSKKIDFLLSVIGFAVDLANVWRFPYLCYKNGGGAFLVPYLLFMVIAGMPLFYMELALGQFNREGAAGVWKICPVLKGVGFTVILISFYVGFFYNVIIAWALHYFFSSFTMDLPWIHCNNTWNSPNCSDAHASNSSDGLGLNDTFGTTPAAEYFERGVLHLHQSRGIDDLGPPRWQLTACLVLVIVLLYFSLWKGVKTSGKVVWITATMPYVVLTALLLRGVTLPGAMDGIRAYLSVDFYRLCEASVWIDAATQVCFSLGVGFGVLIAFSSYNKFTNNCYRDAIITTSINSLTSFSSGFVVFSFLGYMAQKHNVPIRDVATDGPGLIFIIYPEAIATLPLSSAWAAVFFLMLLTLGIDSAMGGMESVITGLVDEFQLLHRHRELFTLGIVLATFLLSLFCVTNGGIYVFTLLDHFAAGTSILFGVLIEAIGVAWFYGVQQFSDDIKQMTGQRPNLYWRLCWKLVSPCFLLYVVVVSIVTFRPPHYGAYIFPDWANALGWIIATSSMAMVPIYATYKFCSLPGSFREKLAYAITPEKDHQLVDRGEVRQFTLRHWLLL
Experimental: as §1, §2, §3, §4
as §5, with “The results of these uptake inhibition assays are expressed below as a percent of control values obtained in the […] of the test compounds. Individual” for “Individual”

[3] = test system: reuptake of norepinephrine, serotonin and dopamine; conditions: reported in the literature (Skolnick et al. 2003); cited from earlier work
[4] = [3H]5-HT, rat brain synaptosomes, 15 min at 37° C., read-out: Uptake IC50 (nM) 5-HT

Row | Structure (SMILES) | Ki (DAT; read-out: Binding DAT Ki) | IC50 [1, 4] | Ki (NET; read-out: Binding NET Ki) | Ki (SERT; read-out: Binding SERT Ki) | IC50 [2] | other results
1 | CCN1CC2C[C@]2(c2ccc(Cl)c(Cl)c2)C1 (stereo partly shown) | 46 nM | 45 nM | 585 nM | 113 nM | 190 nM | –
2 | CCCN1CC2CC2(c2ccc(Cl)c(Cl)c2)C1 (stereo not shown) | 250 nM | 470 nM | 1830 nM | 1670 nM | 1000 nM | –
3 | CCOc1ccc2cc(C34CC3CN(C)C4)ccc2c1 (stereo not shown) | – | 210 nM | – | – | 360 nM | –
4 | COc1ccc2cc(C34CNCC3C4)ccc2c1 (stereo not shown) | – | 82 nM | – | – | 208 nM | –
5 | CN1CC2CC2(c2ccc(Cl)cc2Cl)C1 (stereo not shown) | – | 520 nM | 6200 nM | 500 nM | 10000 nM | –
6 | CCN1CC2C[C@@]2(c2ccc(Cl)c(Cl)c2)C1 (stereo partly shown) | 13 nM | 56 nM | 32 nM | 88 nM | 80 nM | –
7 | CN1CC2CC2(c2ccc(F)c(Cl)c2)C1 (stereo not shown) | 640 nM | 79 nM | 350 nM | 190 nM | 770 nM | –
8 | Cc1ccc(C23CC2CN(C)C3)cc1F (stereo not shown) | 270 nM | 110 nM | 260 nM | 830 nM | 700 nM | –
9 | CN1CC2CC2(c2ccc(F)c(F)c2)C1 (stereo not shown) | 1900 nM | 400 nM | 990 nM | 1600 nM | 1800 nM | –
10 | CN1CC2C[C@]2(c2ccc(Cl)c(Cl)c2)C1 (stereo partly shown) | 62 nM | 87 nM | 490 nM | 125 nM | 130 nM | –
11 | CCCCN1CC2C[C@@]2(c2ccc(Cl)c(Cl)c2)C1 (stereo partly shown) | 395 nM | 3000 nM | 1900 nM | 7600 nM | 2200 nM | –
12 | CC(C)N1CC2C[C@@]2(c2ccc(Cl)c(Cl)c2)C1 (stereo partly shown) | 25 nM | 170 nM | 510 nM | 330 nM | 330 nM | –
13 | COc1ccc2cc(C34CC3CN(C)C4)ccc2c1 (stereo not shown) | – | 14 nM | – | – | 91 nM | –
14 | CCCCN1CC2C[C@]2(c2ccc(Cl)c(Cl)c2)C1 (stereo partly shown) | 215 nM | 2600 nM | 1100 nM | 8900 nM | 1200 nM | –
15 | Fc1ccc([C@]23CNCC2C3)cc1Cl (stereo partly shown) | – | 186 nM | – | – | 572 nM | –
16 | CN1CC2C[C@@]2(c2cccc3ccccc23)C1 (stereo partly shown) | – | – | – | – | 903 nM | –
17 | Cc1cc(C23CC2CN(C)C3)ccc1F (stereo not shown) | 2200 nM | 200 nM | 920 nM | 540 nM | 370 nM | –
18 | CC(C)N1CC2CC2(c2ccc(Cl)c(Cl)c2)C1 (stereo not shown) | 39 nM | 30 nM | 827 nM | 124 nM | 260 nM | –
19 | CCOc1ccc2cc(C34CNCC3C4)ccc2c1 (stereo not shown) | – | 700 nM | – | – | 563 nM | –
20 | CCCN1CC2C[C@]2(c2ccc(Cl)c(Cl)c2)C1 (stereo partly shown) | 170 nM | 390 nM | 1070 nM | 2400 nM | 770 nM | –
21 | CC(C)(C)N1CC2CC2(c2ccc(Cl)c(Cl)c2)C1 (stereo not shown) | – | – | – | – | – | Ki (DAT): 420 nM; IC50 [1]: 240 nM; Ki (NET): 9300 nM; Ki (SERT): 800 nM; IC50 ([2]; [3H]DA, rat striatum synaptosomes, 15 min at 37° C., read-out: Uptake IC50 (nM) DA): 1500 nM
22 | Fc1cc([C@]23CNCC2C3)ccc1Cl (stereo partly shown) | – | 252 nM | – | – | 420 nM | –

Row | Structure (SMILES) | Ki (DAT; read-out: Binding DAT Ki) | IC50 [1, 4] | Ki (NET; read-out: Binding NET Ki) | Ki (SERT; read-out: Binding SERT Ki) | IC50 [2] | other results
23 | CCCN1CC2C[C@@]2(c2ccc(Cl)c(Cl)c2)C1 (stereo partly shown) | 220 nM | 590 nM | 4000 nM | 2000 nM | 1800 nM | –
24 | Fc1ccc(C23CNCC2C3)cc1Cl (stereo not shown) | 680 nM | 310 nM | 1700 nM | 230 nM | 1400 nM | –
25 | c1ccc2cc([C@@]34CNCC3C4)ccc2c1 (stereo partly shown) | – | – | – | – | 98 nM | IC50 [1]: 170 nM
26 | Cc1ccc(C23CNCC2C3)cc1F (stereo not shown) | – | 266 nM | – | – | 457 nM | –
27 | CN1CC2C[C@]2(c2ccc3ccccc3c2)C1 (stereo partly shown) | – | 117 nM | – | – | 147 nM | –
28 | CC(C)N1CC2C[C@]2(c2ccc(Cl)c(Cl)c2)C1 (stereo partly shown) | 72 nM | 100 nM | 5150 nM | 132 nM | 430 nM | –
29 | Cc1ccc([C@@]23CC2CN(C)C3)cc1F (stereo partly shown) | – | 836 nM | – | – | 383 nM | –
30 | CN1CC2C[C@@]2(c2ccc(Cl)c(F)c2)C1 (stereo partly shown) | – | 413 nM | – | – | 437 nM | –
31 | Clc1ccc(C23CNCC2C3)cc1Cl (stereo not shown) [1-(3,4-dichlorophenyl)-3-azabicyclo[3.1.0]hexane] | – | – | – | – | – | inhibition of reuptake of norepinephrine, serotonin and dopamine [3]: inhibit reuptake of norepinephrine, serotonin and dopamine
32 | CN1CC2C[C@@]2(c2ccc(Cl)c(Cl)c2)C1 (stereo partly shown) | 105 nM | 23 nM | 81 nM | 16 nM | 120 nM | –
33 | CN1CC2C[C@@]2(c2ccc(F)c(Cl)c2)C1 (stereo partly shown) | – | 362 nM | – | – | 494 nM | –
34 | CN1CC2CC2(c2ccc(F)cc2F)C1 (stereo not shown) | – | 1100 nM | 6600 nM | – | 7400 nM | –
35 | CN1CC2CC2(c2ccc3ccccc3c2)C1 (stereo not shown) | 68 nM | 31 nM | 520 nM | 6 nM | 350 nM | –
36 | CN1CC2C[C@]2(c2ccc(F)c(Cl)c2)C1 (stereo partly shown) | – | 835 nM | – | – | – | –
37 | c1ccc2cc([C@]34CNCC3C4)ccc2c1 (stereo partly shown) | – | – | – | – | 49 nM | IC50 [1]: 65 nM
38 | CN1CC2CC2(c2ccc([N+](=O)[O-])c(Cl)c2)C1 (stereo not shown) | – | 790 nM | – | 710 nM | – | –
39 | CN1CC2CC2(c2cccc3ccccc23)C1 (stereo not shown) | – | 119 nM | – | – | 512 nM | –
40 | Cc1ccc([C@]23CC2CN(C)C3)cc1F (stereo partly shown) | – | 702 nM | – | – | 917 nM | –
41 | CN1CC2C[C@@]2(c2ccc3ccccc3c2)C1 (stereo partly shown) | – | < 10 nM | – | – | 82 nM | –
42 | Clc1ccc(C23CC2CN(C2CC2)C3)cc1Cl (stereo not shown) | 1700 nM | 2600 nM | 9500 nM | 3700 nM | 1500 nM | –
43 | Cc1ccc([C@]23CNCC2C3)cc1F (stereo partly shown) | – | 133 nM | – | – | 401 nM | –
44 | CCCCN1CC2CC2(c2ccc(Cl)c(Cl)c2)C1 (stereo not shown) | 240 nM | 1200 nM | 2200 nM | 6100 nM | 78 nM | –
